Results on three compounds are retold here after US7378387B2, “Method of suppressing immune response by reducing intracellular content of glutathione in macrophages and monocytes” (Ajinomoto Co., Inc., priority 1997, dated 2008).

Assay [1] relates to dextran sulfate-induced inflammatory bowel disease. The assay can be described thus: Dextran sulfate-induced inflammatory bowel disease in γc knock out mice (Example 14). The format is in vivo. Here is the method:
To 3-week-old γc knock out mice with +/− genotypes were administered 20 μg[…] of (NAC-OMe)2 three times a week for 2 weeks. On day 16, the free drinking of 1% dextran sulfate water was started. […] The γc knock out mice and their wild-type male mice (+/Y- and −/Y) and female mice (+/+, +/− and −/−) were caused to freely drink water containing 1% dextran sulfate as a inflammatory bowel disease model.

Assay [2] concerns IL-12. The assay can be described thus: IL-12 production by MΦ induced by intraperitoneal injection of substances (Example 7). The assay is classed as in vivo, mouse. How it is done:
(§1) The amount of IL-12 was determined through bioassay using cells of human T cell strain 2D6 (J. Leukocyte Biology, vol. 61, p. 346, 1997).
(§2) 2D6 cells which had been incubated in an RPMI 1640 medium containing 500 pg/ml of recombinant human IL-12, 50 μM of 2-mercaptoethanol and 10% FCS (fetal calf serum) were moved to a tube, and centrifugally washed three times with the above-mentioned medium without IL-12 and cell density was adjusted to 1×10^5/ml. The cell suspension was added in an amount of 100 μl each to a 96-well flat bottom plate containing a sample serially diluted in advance with an RPMI 1640 medium containing 50 μM of 2-mercaptoethanol and 10% FCS in an amount of 100 μl each. Subsequently, the mixture was charged into a 5% […] incubator of 37° C., and incubated for 48 hours. For final 6 hours, ^3H-TdR was pulsed (a substance adjusted to 370 kBq/ml in an RPMI 1640 medium containing 50 μM of 2-mercaptoethanol and 10% FCS was added in an amount of 50 μl each). The cells a harvested, and the radioactivity was measured using a β counter (Matrix 96, supplied by Packard).
It was examined whether there is a difference in the IL-12 production between LNT-induced MΦ and LPS-induced MΦ. […] Next, the same analysis was conducted using MΦ induced by intraperitoneally injecting substances for changing the GSH content in cells.

Assay [3] relates to IL-6. The assay can be described thus: IL-6 in culture supernatant of macrophages of NOD mice (Example 22). The format is in vivo. The following applies: oral 1 mg/0.5 ml/h/day on alternate days, five times, age 4 weeks; control group 3800 pg/ml. Here is the method:
(§3) The amount of IL-6 was determined using IL-6 dependent mouse hybridoma MH60 cells (J. Eur. Immunol., vol. 18, p. 951, 1988). One hundred microliters of the culture supernatant were added to 100 μl of the MH60 cell suspension adjusted to 1×10^5 cells/ml in a 10% FCS-containing RPMI medium, and the mixed solution was incubated at 37° C. for 2 days in a CO2 incubator. Subsequently, 10 μl of MTT (supplied by Sigma Co.) solution adjusted to a concentration of 5 mg/ml in the same medium were added thereto, and the reaction was conducted at 37° C. for 5 hours. After the completion of the reaction, the centrifugation was conducted. The supernatant (160 μl) was removed, and 100 μl of a mixture of hydrochloric acid and propanol were added to the residue. The suspension was conducted using a pipetman to dissolve the cells. Immediately after the dissolution, an absorbance of 570 nm was measured with an immunometer (supplied by Bio-Rad).
Through a probe, glutathione ethyl ester was orally given at 1 mg/0.5 ml/h/day to the NOD mice of age 4 weeks on alternate days, in total five times. By the same method as in Example 3, intraperitoneal cells were collected from the mice to sample intraperitoneal macrophages, which were then suspended and adjusted in a phenol red-free RPMI 1640 culture medium supplemented with 10% fetal calf serum to 3×10^6 cells/ml. […]

The test system of assay [4] is IL-6. The assay can be described thus: IL-6 in culture supernatant of macrophage-like cells from rheumatoid arthritis patients (Example 17). The assay is classed as cell-based, human. The conditions noted are these: added at 2 mM. How it is done:
A stimulator was added to 1×10^6 MΦ, and the incubation was conducted at 37° C. for 2 days in a CO2 incubator. After centrifugation, the culture supernatant was collected.
as §3
By the same manner as in Example 3, macrophage-like cells were collected from tissues of rheumatoid arthritis patients, and were then suspended and adjusted in a phenol red-free RPMI 1640 culture medium supplemented with 10% fetal calf serum to 3×10^6 cells/ml. […]

Assay [5] concerns reduced glutathione in intraperitoneal macrophages. The assay can be described thus: Reduced glutathione in intraperitoneal macrophages of NOD mice by ACAS (Example 22). The format is in vivo. The conditions noted are these: doses given per substance.
Assay [6] concerns IL-6. The assay can be described thus: IL-6 production of MΦ after NAC drinking and/or IL-2 administration (Example 8). The format is in vivo, DBA/2 female mice. The following applies: stimulated with LPS and IFNγ; control mice 1,240 pg/ml.
Protocol: The amount of IL-6 was determined using IL-6 dependent mouse hybridoma MH60 cells (J. Eur. Immunol., vol. 18, p. 951, 1988). One hundred microliters of the culture supernatant were added to 100 μl of the MH60 cell suspension adjusted to 1×10^5 cells/ml in a 10% FCS-containing RPMI medium, and the mixed solution was incubated at 37° C. for 2 days in a CO2 incubator. Subsequently, 10 μl of MTT (supplied by Sigma Co.) solution adjusted to a concentration of 5 mg/ml in the same medium were added thereto, and the reaction was conducted at 37° C. for 5 hours. […] Immediately after the dissolution, an absorbance of 570 nm was measured with an immunometer (supplied by Bio-Rad).
Two groups, namely, a group of 8-week-old DBA/2 female mice which were caused to freely drink city water as in Example 6, and a group of the same female mice which were caused to freely drink city water containing 1 mg/ml of NAC, were prepared. […] On day 14, the IL-12 production from MΦ was measured in the same manner as in Example 6.
Peritoneal cells were harvested from four groups of the mice, and stimulated with LPS and IFNγ. Then, the NO production, the IL-6 production and the IL-12 production were measured.
Assay [7] concerns reductive glutathione in MΦ. The assay can be described thus: GSH content in MΦ by ACAS after NAC drinking and/or IL-2 administration (Example 8). The assay is classed as in vivo, DBA/2 female mice. The following applies: NAC 1 mg/ml in city water; IL-2 intraperitoneally twice a day every two days for two weeks; day 14.
Protocol: Three-hundred microliters of a cell suspension adjusted concentration of 3×10^5 cells/ml in an RPMI 1640 medium (phenol red-free) were charged into a chambered coverglass (#136439, supplied by Nunc), and incubated at 37° C. for 2 hours using a CO2 incubator. The culture solution was washed with the medium, and 300 μl of monochlorobimane (supplied by Molecular Plobe) adjusted to 10 μM in the same medium were added thereto. The mixture was charged into a CO2 incubator of 37° C., and the reaction was conducted for 30 minutes. The fluorescent intensity was measured with ACAS. In ACAS, a UV laser was used.
Two groups, namely, a group of 8-week-old DBA/2 female mice which were caused to freely drink city water as in Example 6, and a group of the same female mice which were caused to freely drink city water containing 1 mg/ml of NAC, were prepared. Further, the two groups of the-above-mentioned mice to which human recombinant IL-2 in an amount of 2 pg/0.5 ml/h was intraperitoneally administered twice a day, every two days for two weeks were provided.
Assay [8] has as its system IL-12. The assay can be described thus: IL-12 production of MΦ after NAC drinking and/or IL-2 administration (Example 8). The format is in vivo, DBA/2 female mice. The conditions noted are these: stimulated with LPS and IFNγ; control mice 0 pg/ml. How it is done: as §1, §2

Turning to `COC(=O)[C@H](CSSC[C@H](NC(C)=O)C(=O)OC)NC(C)=O` [(NAC-OMe)2, N,N′-diacetylcystine dimethyl ester], the “occurrence rate of the inflammatory bowel disease” value in assay [1] (+/+ mice, non-administration 80%) worked out at 60%. Moreover, the “occurrence rate of the inflammatory bowel disease, Day 30” value in assay [1] (+/− mice, 20 μg/h three times a week for 2 weeks, 1% dextran sulfate water from day 16, non-administration 100%) stood at 16.6%. The same compound came in with a survival rate in assay [1] (+/− mice, 20 μg/h three times a week for 2 weeks, 1% dextran sulfate water, non-administration 57%) of 100%.

Consider `CCOC(=O)CNC(=O)[C@H](CS)NC(=O)CC[C@H](N)C(=O)O` [GSH-OEt, glutathione monoethyl ester], for which the IL-12 production in assay [2] (MΦ induced by intraperitoneal injection of the substance, stimulation with LPS and IFNγ) is 3,570 pg/ml. Moreover, the “IL-12 production of substance-induced MΦ, without DEM or IL-4” value in assay [2] (baseline values of the DEM and IL-4 experiments) stood at 490 pg/mL. For the same compound, the “IL-6 in the culture supernatant of the macrophages” value in assay [3] was 460 pg/mL; in assay [4] it was “prominently decreased”. The “relative ratio of oxidative macrophages compared with saline-dosed NOD mice” value was “same action is also observed” in assay [5] (intraperitoneal dosing on alternate days from age 3-4 weeks); “same action is also observed” in assay [5] (oral dosing on alternate days from age 3-4 weeks); “decreased” in assay [5] (oral dosing on alternate days from age 3-4 weeks, listed as glutathione ethyl ester).

`CC(=O)N[C@@H](CS)C(=O)O` [NAC, N-acetylcysteine, reference compound]: in assay [6], the “amount of IL-6 in the macrophage culture supernatant” value is 320 pg/mL. For the same compound, the “content of reductive glutathione in MΦ (ACAS)” value in assay [7] is “markedly increased”. In assay [8], the “amount of IL-12” value came to 620 pg/mL.
